Results published in patent publication US20100075965A1, “PI3 KINASE INHIBITORS AND METHODS OF THEIR USE” (Novartis AG, priority 2006, published 2010).

Key:
PI3 K Alpha = PI3 K Alpha (Homo sapiens, UniProt P42336); assay: PI3 kinase phosphorylation assays (homogenous solution phase, one step solid phase, ATP depletion/KinaseGlo); type: biochemical; conditions: read-out: PI3K Alpha IC50
A2780 cells = assay: Viability assay in A2780 (Cell Titer Glo); type: cell-based, human; conditions: Homo sapiens; A2780 cells; read-out: A2780 Cell prolif. EC50
Outline: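 A2780 cells (1,000/well, DMEM + 10% FBS) were exposed to 3-fold serial dilutions of compound for 72 hrs at 37° C, 5% CO2. Viable cells were read by Cell Titer Glo luminescence, in duplicate, and EC50 values were derived from the curves.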

PI3 K Alpha, sequence (P42336 whole entry): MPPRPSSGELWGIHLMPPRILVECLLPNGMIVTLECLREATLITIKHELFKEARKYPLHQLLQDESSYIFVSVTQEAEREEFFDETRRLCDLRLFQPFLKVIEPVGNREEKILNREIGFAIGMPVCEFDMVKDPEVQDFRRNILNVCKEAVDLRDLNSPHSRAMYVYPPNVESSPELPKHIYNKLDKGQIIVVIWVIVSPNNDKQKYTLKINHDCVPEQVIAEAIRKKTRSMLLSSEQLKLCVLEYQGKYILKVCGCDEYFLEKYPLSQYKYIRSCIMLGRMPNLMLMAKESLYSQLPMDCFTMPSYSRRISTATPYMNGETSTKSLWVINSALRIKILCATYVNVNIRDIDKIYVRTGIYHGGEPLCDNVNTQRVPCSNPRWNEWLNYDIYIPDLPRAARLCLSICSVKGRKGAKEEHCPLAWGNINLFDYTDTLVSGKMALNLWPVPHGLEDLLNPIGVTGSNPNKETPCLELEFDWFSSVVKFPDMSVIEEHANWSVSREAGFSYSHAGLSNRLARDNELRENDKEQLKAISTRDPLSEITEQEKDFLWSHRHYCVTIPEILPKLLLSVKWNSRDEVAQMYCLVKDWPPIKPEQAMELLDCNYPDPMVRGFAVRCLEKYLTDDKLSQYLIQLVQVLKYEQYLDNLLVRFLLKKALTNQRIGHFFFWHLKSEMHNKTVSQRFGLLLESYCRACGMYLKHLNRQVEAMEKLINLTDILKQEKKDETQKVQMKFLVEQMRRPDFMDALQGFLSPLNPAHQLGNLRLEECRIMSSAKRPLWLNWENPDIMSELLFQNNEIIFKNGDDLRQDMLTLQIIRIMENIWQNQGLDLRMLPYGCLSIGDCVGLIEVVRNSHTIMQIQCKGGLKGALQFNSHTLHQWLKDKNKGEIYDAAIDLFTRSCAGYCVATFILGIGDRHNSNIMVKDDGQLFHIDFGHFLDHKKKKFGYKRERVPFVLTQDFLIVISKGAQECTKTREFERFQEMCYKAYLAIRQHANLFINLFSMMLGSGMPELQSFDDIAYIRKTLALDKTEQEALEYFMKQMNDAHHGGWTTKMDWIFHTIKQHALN
PI3 K Alpha, sequence (P27986 whole entry partner): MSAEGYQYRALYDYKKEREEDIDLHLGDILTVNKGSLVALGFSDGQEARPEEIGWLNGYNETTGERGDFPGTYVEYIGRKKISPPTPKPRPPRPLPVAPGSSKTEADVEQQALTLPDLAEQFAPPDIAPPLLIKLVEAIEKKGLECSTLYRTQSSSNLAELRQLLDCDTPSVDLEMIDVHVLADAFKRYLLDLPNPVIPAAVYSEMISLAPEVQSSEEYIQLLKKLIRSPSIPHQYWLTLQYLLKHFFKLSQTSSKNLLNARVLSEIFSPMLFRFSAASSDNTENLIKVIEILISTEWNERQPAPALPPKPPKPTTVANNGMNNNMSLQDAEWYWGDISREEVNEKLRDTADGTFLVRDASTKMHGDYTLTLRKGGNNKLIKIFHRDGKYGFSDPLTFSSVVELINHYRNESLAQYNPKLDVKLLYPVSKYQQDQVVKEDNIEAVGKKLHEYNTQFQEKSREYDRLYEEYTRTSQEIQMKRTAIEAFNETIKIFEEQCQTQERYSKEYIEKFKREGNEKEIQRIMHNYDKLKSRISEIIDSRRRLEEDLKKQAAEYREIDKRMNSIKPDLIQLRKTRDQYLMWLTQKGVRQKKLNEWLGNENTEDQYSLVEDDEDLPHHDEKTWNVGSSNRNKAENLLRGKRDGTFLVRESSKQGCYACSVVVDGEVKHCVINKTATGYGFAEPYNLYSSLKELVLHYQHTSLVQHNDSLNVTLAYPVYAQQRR

In the case of `Nc1ncc(-c2ccc3nc(NC(=O)[C@H]4CCCN4)cn3n2)cc1C(F)(F)F` [Example 178, (R)-N-(6-(6-amino-5-(trifluoromethyl)pyridin-3-yl)imidazo[1,2-b]pyridazin-2-yl)pyrrolidine-2-carboxamide], the IC50 (PI3 K Alpha) is reported as less than 1 µM and the EC50 (A2780 cells) is reported as less than 25 µM.

`CC(C)(C)OC(=O)N1CCC[C@@H]1C(=O)Nc1cn2nc(-c3cnc(N)c(C(F)(F)F)c3)ccc2n1` [Example 179, (R)-tert-butyl amino-5-(trifluoromethyl) pyridin-3-yl)imidazo[1,2-b]pyridazin-2-ylcarbamoyl) pyrrolidine-1-carboxylate] gave an IC50 (PI3 K Alpha) of less than 1 µM and an EC50 (A2780 cells) of less than 25 µM.

For `Cc1ccc(C2CCCN2C(=O)Nc2cn3cc(-c4cnc(N)c(C(F)(F)F)c4)ccc3n2)s1` (stereo not shown) [Example 180, N-(6-(6-amino-5-(trifluoromethyl)pyridin-3-yl)imidazo[1,2-a]pyridin-2-yl)-2-(5-methyithiophen-2-yl)pyrrolidine-1-carboxamide], the IC50 (PI3 K Alpha) was less than 1 µM and the EC50 (A2780 cells) was less than 25 µM.

`CCN(CC)Cc1cc(-c2ccc3nc(NC(C)=O)cn3c2)cnc1N` [Example 181, N-(6-(6-amino-5-((diethylamino)methyl)pyridin-3-yl)imidazo[1,2-a]pyridin-2-yl)acetamide] was tested, and the IC50 (PI3 K Alpha) was less than 1 µM and the EC50 (A2780 cells) was less than 25 µM.

Molecule `CC(=O)N1CCC[C@H]1C(=O)Nc1cn2cc(-c3cnc(N)c(Cl)c3)ccc2n1` [Example 182, (S)-1-acetyl-N-(6-(6-amino-5-chloropyridin-3-yl)imidazo[1,2-a]pyridin-2-yl)pyrrolidine-2-carboxamide] has an IC50 (PI3 K Alpha) of less than 1 µM and an EC50 (A2780 cells) of less than 25 µM.

`CC(=O)Nc1cn2cc(-c3cnc(N)c(-c4ccc(F)cc4)c3)ccc2n1` [Example 183, N-(6-(6-amino-5-(4-fluorophenyl)pyridin-3-yl)imidazo[1,2-a]pyridin-2-yl)acetamide] was tested, and the IC50 (PI3 K Alpha) was less than 1 µM and the EC50 (A2780 cells) was less than 25 µM.

With `CCC(=O)Nc1cn2cc(-c3cnc(N)c(OC)n3)ccc2n1` [Example 185, N-(6-(5-amino-6-methoxypyrazin-2-yl)imidazo[1,2-a]pyridin-2-yl)propionamide] the IC50 (PI3 K Alpha) was less than 1 µM and the EC50 (A2780 cells) was less than 10 µM.

Work on `CC(=O)Nc1cn2nc(-c3cnc(N)c(-c4cccc(C(F)(F)F)c4)c3)ccc2n1` [Example 186, N-(6-(6-amino-5-(3-(trifluoromethyl)phenyl)pyridin-3-yl)imidazo[1,2-b]pyridazin-2-yl)acetamide] yielded an IC50 (PI3 K Alpha) of less than 1 µM and an EC50 (A2780 cells) of less than 10 µM.

`Nc1ncc(-c2ccc3nc(NC(=O)C4CCN4)cn3n2)cc1C(F)(F)F` (stereo not shown) [Example 189] showed an IC50 (PI3 K Alpha) of less than 1 µM and an EC50 (A2780 cells) of less than 10 µM.

With `Nc1ncc(-c2ccc3nc(NC(=O)N4CCCC4C(F)(F)F)cn3c2)cc1C(F)(F)F` (stereo not shown) [Example 191] the IC50 (PI3 K Alpha) was less than 1 µM and the EC50 (A2780 cells) was less than 10 µM.

In the case of `Nc1ncc(-c2ccc3nc(NC(=O)c4cccc(F)c4)cn3c2)cc1C(F)(F)F` [Example 192, N-(6-(6-amino-5-(trifluoromethyl)pyridin-3-yl)imidazo[1,2-a]pyridin-2-yl)-3-fluorobenzamide], the IC50 (PI3 K Alpha) is reported as less than 1 µM and the EC50 (A2780 cells) is reported as less than 10 µM.

In the case of `CC(C)(C)OC(=O)N1CC(C(=O)Nc2cn3nc(-c4cnc(N)c(C(F)(F)F)c4)ccc3n2)C1` [Example 197, tert-butyl 3-(6-(6-amino-5-(trifluoromethyl)pyridin-3-yl)imidazo[1,2-b]pyridazin-2-ylcarbamoyl) azetidine-1-carboxylate], the IC50 (PI3 K Alpha) is reported as less than 1 µM and the EC50 (A2780 cells) is reported as less than 10 µM.

Molecule `Nc1ncc(-c2ccc3nc(NC(=O)CN4CCCCC4)cn3c2)cc1C(F)(F)F` [Example 198, N-(6-(6-amino-5-(trifluoromethyl)pyridin-3-yl)imidazo[1,2-a]pyridin-2-yl)-2-(piperidin-1-yl)acetamide] has an IC50 (PI3 K Alpha) of less than 1 µM and an EC50 (A2780 cells) of less than 10 µM.

`CCOCC(=O)Nc1cn2cc(-c3cnc(N)c(C(F)(F)F)c3)ccc2n1` [Example 199, N-(6-(6-amino-5-(trifluoromethyl)pyridin-3-yl)imidazo[1,2-a]pyridin-2-yl)-2-ethoxyacetamide] showed an IC50 (PI3 K Alpha) of less than 1 µM and an EC50 (A2780 cells) of less than 10 µM.

Work on `Nc1ncc(-c2ccc3nc(NC(=O)COC4CCNCC4)cn3c2)cc1C(F)(F)F` [Example 200, N-(6-(6-amino-5-(trifluoromethyl)pyridin-3-yl)imidazo[1,2-a]pyridin-2-yl)-2-(piperidin-4-yloxy)acetamide] yielded an IC50 (PI3 K Alpha) of less than 1 µM and an EC50 (A2780 cells) of less than 10 µM.

`CC(=O)Nc1cn2cc(-c3cnc(N)c(N4CCOCC4)n3)ccc2n1` [Example 201, N-(6-(5-amino-6-morpholino-pyrazin-2-yl)imidazo[1,2-a]pyridin-2-yl)acetamide] gave an IC50 (PI3 K Alpha) of less than 1 µM and an EC50 (A2780 cells) of less than 10 µM.

`COCCOc1nc(-c2ccc3nc(NC(=O)CN4CCCCC4)cn3c2)cnc1N` [Example 202, N-(6-(5-amino-6-(2-methoxyethoxy)pyrazin-2-yl)imidazo[1,2-a]pyridin-2-yl)-2-(piperidin-1-yl)acetamide] showed an IC50 (PI3 K Alpha) of less than 1 µM and an EC50 (A2780 cells) of less than 10 µM.

For `CC(C)(C)OC(=O)NCC(=O)Nc1cn2cc(-c3cnc(N)c(C(F)(F)F)c3)ccc2n1` [Example 203, tert-butyl 2-(6-(6-amino-5-(trifluoromethyl)pyridin-3-yl)imidazo[1,2-a]pyridin-2-ylamino)-2-oxoethylcarbamate], the IC50 (PI3 K Alpha) was less than 1 µM and the EC50 (A2780 cells) was less than 10 µM.

Work on `CCN/N=C/c1cc(-c2ccc3nc(NC(C)=O)cn3c2)cnc1N` [Example 207, (E)-N-(6-(6-amino-5-((2-ethylhydrazono)methyl)pyridin-3-yl)imidazo[1,2-a]pyridin-2-yl)acetamide] yielded an IC50 (PI3 K Alpha) of less than 1 µM and an EC50 (A2780 cells) of less than 10 µM.

Work on `CC(=O)Nc1cn2cc(-c3cnc(N)c(OCC4CCN(C)CC4)n3)ccc2n1` [Example 209, N-(6-(5-amino-6-((1-methylpiperidin-4-yl)methoxy)pyrazin-2-yl)imidazo[1,2-a]pyridin-2-yl)acetamide] yielded an IC50 (PI3 K Alpha) of less than 1 µM and an EC50 (A2780 cells) of less than 10 µM.

`CC(=O)Nc1cn2cc(-c3ccc(N)nc3F)ccc2n1` [Example 210, N-(6-(6-amino-2-fluoropyridin-3-yl)imidazo[1,2-a]pyridin-2-yl)acetamide] showed an IC50 (PI3 K Alpha) of less than 1 µM and an EC50 (A2780 cells) of less than 10 µM.

In the case of `CC(=O)Nc1cn2nc(-c3cnc(N)c(C(=O)NCCN4CCCC4)c3)ccc2n1` [Example 211, 5-(2-acetamido-imidazo[1,2-b]pyridazin-6-yl)-2-amino-N-(2-(pyrrolidin-1-yl)ethyl) nicotinamide], the IC50 (PI3 K Alpha) is reported as less than 1 µM and the EC50 (A2780 cells) is reported as less than 10 µM.

With `COc1ccccc1-c1cc(-c2ccc3nc(NC(C)=O)cn3n2)cnc1N` [Example 212, N-(6-(6-amino-5-(2-methoxyphenyl)pyridin-3-yl)imidazo[1,2-b]pyridazin-2-yl)acetamide] the IC50 (PI3 K Alpha) was less than 1 µM and the EC50 (A2780 cells) was less than 10 µM.

For `Nc1ncc(-c2ccc3nc(NC(=O)CO[C@@H]4CCNC4)cn3c2)cc1C(F)(F)F` [Example 214, (R)-N-(6-(6-amino-5-(trifluoromethyl)pyridin-3-yl)imidazo[1,2-a]pyridin-2-yl)-2-(pyrrolidin-3-yloxy)acetamide], the IC50 (PI3 K Alpha) was less than 1 µM and the EC50 (A2780 cells) was less than 10 µM.

For `Nc1ncc(-c2ccc3nc(NC(=O)[C@H]4CCCCN4)cn3c2)cc1C(F)(F)F` [Example 216, (R)-N-(6-(6-amino-5-(trifluoromethyl)pyridin-3-yl)imidazo[1,2-a]pyridin-2-yl)piperidine-2-carboxamide], the IC50 (PI3 K Alpha) was less than 1 µM and the EC50 (A2780 cells) was less than 10 µM.

`Nc1ncc(-c2ccc3nc(NC(=O)COCc4ccccc4)cn3n2)cc1C(F)(F)F` [Example 217, N-(6-(6-amino-5-(trifluoromethyl)pyridin-3-yl)imidazo[1,2-b]pyridazin-2-yl)-2-(benzyloxy) acetamide] showed an IC50 (PI3 K Alpha) of less than 1 µM and an EC50 (A2780 cells) of less than 10 µM.
